From patent US5132304A, “Benzothiazine derivatives and their applications as medicinal products or as synthesis intermediates for medicinal products” (Laboratorios Del Dr. Esteve, S. A., priority 1989, dated 1992)

Tested on: carrageenan-induced oedema in Wistar rats
Assay: Inhibition of carrageenan-induced oedema in Wistar rats 3 hours after oral administration
Format: in vivo
Conditions: p.o.; for Oedema inhibition: N=10, 3 hours after administration; for ED50: Rattus norvegicus, calculated from results 3 hours after oral administration, 2 hours after carrageenan
Protocol: (Inhibition of carrageenan-induced oedema)
The method followed was that described by Winter et al. (Proc. Soc. Exp. Biol. Med. […]; 111; 544-547).
Inhibition of carrageenan-induced oedema in Wistar rats 3 hours after administration of the product: […]

Compound	Oedema inhibition (2.5 mg/kg)	Oedema inhibition (5 mg/kg)	Oedema inhibition (10 mg/kg)	Oedema inhibition (40 mg/kg)	ED50	Oedema inhibition (12.5 mg/kg)	Oedema inhibition (25 mg/kg)
CCOC(=O)OC1=C(C(=O)N(C(=O)OCC)c2ccccn2)N(C)S(=O)(=O)c2ccccc21 [Example 1, N-ethoxycarbonyl-N-(2-pyridyl)-4-ethoxy-carbonyloxy-2-methyl-2H-1,2-benzothiazine-3-carboxamide 1,1-dioxide]	33.8%	54.3%	63.8%	65.5%	5.6 mg/kg		
CCCCC1C(=O)N(c2ccccc2)N(c2ccccc2)C1=O [Phenylbutazone, phenylbutazone, reference compound]					19.6 mg/kg	46.6%	52.1%
